From patent US8802597B2, “Herbicidal pyrimidines” (E I du Pont de Nemours and Company, priority 2003, dated 2014)

What was measured:
Type in all cases: in vivo
[1] = system: blackgrass (Alopecurus myosuroides); assay: Test B postemergence; details: scale 0 to 100 (0 no effect, 100 complete control)
Summary of the method: (§1)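 Test chemicals in a non-phytotoxic solvent mixture with surfactant were applied preemergence to planted seeds and postemergence to plants 2 to 18 cm tall (1- to 4-leaf stage). After 13 to 15 days in a greenhouse, injury was visually rated against untreated controls on a 0 to 100 scale.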

wild oat (Avena fatua) = assay: Test B postemergence; details: scale 0 to 100 (0 no effect, 100 complete control)
Summary of the method: as §1

[2] = system: lambsquarters (Chenopodium album); assay: Test B pre/postemergence; details: for Lambsquarters plant response rating: Postemergence; for Plant response rating, Lambsquarters: Preemergence
Summary of the method: as §1

[3] = system: velvetleaf (Abutilon theophrasti); assay: Test B pre/postemergence; details: for Velvetleaf plant response rating: Postemergence; for Plant response rating, Velvetleaf: Preemergence
Summary of the method: as §1

[4] = system: Surinam grass (Brachiaria decumbens); assay: Test B pre/postemergence; details: for Surinam Grass plant response rating: Postemergence; for Plant response rating, Surinam Grass: Preemergence
Summary of the method: as §1

[5] = system: barnyardgrass (Echinochloa crus-galli); assay: Test B pre/postemergence; details: for Barnyardgrass plant response rating: Postemergence; for Plant response rating, Barnyardgrass: Preemergence
Summary of the method: as §1

[6] = system: cocklebur (Xanthium strumarium); assay: Test B pre/postemergence; details: for Cocklebur plant response rating: Postemergence; for Plant response rating, Cocklebur: Preemergence
Summary of the method: as §1

[7] = system: morningglory (Ipomoea coccinea); assay: Test B pre/postemergence; details: for Morningglory plant response rating: Postemergence; for Plant response rating, Morningglory: Preemergence
Summary of the method: as §1

corn (Zea mays) = assay: Test B pre/postemergence; details: for Corn plant response rating: Postemergence; for Plant response rating, Corn: Preemergence
Summary of the method: as §1

[8] = system: crabgrass (Digitaria sanguinalis); assay: Test B pre/postemergence; details: for Crabgrass plant response rating: Postemergence; for Plant response rating, Crabgrass: Preemergence
Summary of the method: as §1

[9] = system: wheat (Triticum aestivum); assay: Test B pre/postemergence; details: for Wheat plant response rating: Postemergence; for Plant response rating, Wheat: Preemergence
Summary of the method: as §1

[10] = system: giant foxtail (Setaria faberii); assay: Test B pre/postemergence; details: for Foxtail, Giant plant response rating: Postemergence; for Plant response rating, Foxtail, Giant: Preemergence
Summary of the method: as §1

[11] = system: pigweed (Amaranthus retroflexus); assay: Test B pre/postemergence; details: for Pigweed plant response rating: Postemergence; for Plant response rating, Pigweed: Preemergence
Summary of the method: as §1

rice (Oryza sativa) = assay: Test B flooded paddy test; details: Flood, scale 0 to 100
Summary of the method: (§2)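 Plants were grown to the 2-leaf stage before treatment, then kept in a greenhouse for 13 to 15 days. Injury was rated visually against untreated controls on a 0 to 100 scale, where 0 is no effect and 100 is complete control.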

[12] = system: duck salad (Heteranthera limosa); assay: Test B flooded paddy test; details: Flood, scale 0 to 100
Summary of the method: as §2

[13] = system: barnyardgrass (Echinochloa crus-galli); assay: Test B flooded paddy test; details: Flood, scale 0 to 100
Summary of the method: as §2

[14] = system: umbrella sedge (Cyperus difformis); assay: Test B flooded paddy test; details: Flood, scale 0 to 100
Summary of the method: as §2

[15] = 62 g ai/ha, scale 0 to 100 (0 no effect, 100 complete control)
[16] = 125 g ai/ha, scale 0 to 100 (0 no effect, 100 complete control)
[17] = 62 g ai/ha, scale 0 to 100, 0 no effect, 100 complete control

Nc1nc(-c2ccc(Cl)cc2)nc(C(=O)[O-])c1Cl.[Na+] [Compound 117]
Blackgrass plant response rating ([1]; 62 g ai/ha): 60
Blackgrass plant response rating ([1]; 125 g ai/ha): 70
Oat, Wild plant response rating (wild oat (Avena fatua); 62 g ai/ha): 30
Oat, Wild plant response rating (wild oat (Avena fatua); 125 g ai/ha): 50
Lambsquarters plant response rating [2, 15]: 90
Lambsquarters plant response rating [2, 16]: 100
Plant response rating, Lambsquarters [2, 17]: 90
Plant response rating, Lambsquarters [2, 16]: 100
Velvetleaf plant response rating [3, 15]: 90
Velvetleaf plant response rating [3, 16]: 100
Plant response rating, Velvetleaf [3, 17]: 70
Plant response rating, Velvetleaf [3, 16]: 90
Surinam Grass plant response rating [4, 15]: 70
Surinam Grass plant response rating [4, 16]: 70
Plant response rating, Surinam Grass [4, 17]: 80
Plant response rating, Surinam Grass [4, 16]: 100
Barnyardgrass plant response rating [5, 15]: 90
Barnyardgrass plant response rating [5, 16]: 90
Plant response rating, Barnyardgrass [5, 17]: 10
Plant response rating, Barnyardgrass [5, 16]: 30
Cocklebur plant response rating [6, 15]: 100
Cocklebur plant response rating [6, 16]: 100
Plant response rating, Cocklebur [6, 17]: 50
Plant response rating, Cocklebur [6, 16]: 90
Morningglory plant response rating [7, 15]: 80
Morningglory plant response rating [7, 16]: 100
Plant response rating, Morningglory [7, 17]: 10
Plant response rating, Morningglory [7, 16]: 20
Corn plant response rating (corn (Zea mays); [15]): 90
Corn plant response rating (corn (Zea mays); [16]): 90
Plant response rating, Corn (corn (Zea mays); [17]): 0
Plant response rating, Corn (corn (Zea mays); [16]): 10
Crabgrass plant response rating [8, 15]: 60
Crabgrass plant response rating [8, 16]: 80
Plant response rating, Crabgrass [8, 17]: 90
Plant response rating, Crabgrass [8, 16]: 90
Wheat plant response rating [9, 15]: 50
Wheat plant response rating [9, 16]: 70
Plant response rating, Wheat [9, 17]: 50
Plant response rating, Wheat [9, 16]: 80
Foxtail, Giant plant response rating [10, 15]: 80
Foxtail, Giant plant response rating [10, 16]: 80
Plant response rating, Foxtail, Giant [10, 17]: 20
Plant response rating, Foxtail, Giant [10, 16]: 90
Pigweed plant response rating [11, 15]: 100
Pigweed plant response rating [11, 16]: 100
Plant response rating, Pigweed [11, 17]: 100
Plant response rating, Pigweed [11, 16]: 100
Plant response rating, Rice (rice (Oryza sativa); 125 g ai/ha): 20
Plant response rating, Rice (rice (Oryza sativa); 500 g ai/ha): 50
Plant response rating, Ducksalad ([12]; 125 g ai/ha): 100
Plant response rating, Ducksalad ([12]; 500 g ai/ha): 100
Plant response rating, Barnyardgrass ([13]; 125 g ai/ha): 20
Plant response rating, Barnyardgrass ([13]; 500 g ai/ha): 70
Plant response rating, Sedge, Umbrella ([14]; 125 g ai/ha): 80
Plant response rating, Sedge, Umbrella ([14]; 500 g ai/ha): 90

COC(=O)c1nc(-c2ccc(I)cc2)nc(N)c1Br [Compound 128]
Blackgrass plant response rating ([1]; 62 g ai/ha): 40
Blackgrass plant response rating ([1]; 125 g ai/ha): 50
Oat, Wild plant response rating (wild oat (Avena fatua); 62 g ai/ha): 0
Oat, Wild plant response rating (wild oat (Avena fatua); 125 g ai/ha): 40
Lambsquarters plant response rating [2, 15]: 90
Lambsquarters plant response rating [2, 16]: 90
Plant response rating, Lambsquarters [2, 17]: 10
Plant response rating, Lambsquarters [2, 16]: 50
Velvetleaf plant response rating [3, 15]: 50
Velvetleaf plant response rating [3, 16]: 80
Plant response rating, Velvetleaf [3, 17]: 0
Plant response rating, Velvetleaf [3, 16]: 40
Surinam Grass plant response rating [4, 15]: 30
Surinam Grass plant response rating [4, 16]: 40
Plant response rating, Surinam Grass [4, 17]: 0
Plant response rating, Surinam Grass [4, 16]: 0
Barnyardgrass plant response rating [5, 15]: 40
Barnyardgrass plant response rating [5, 16]: 60
Plant response rating, Barnyardgrass [5, 17]: 0
Plant response rating, Barnyardgrass [5, 16]: 10
Cocklebur plant response rating [6, 15]: 70
Cocklebur plant response rating [6, 16]: 90
Plant response rating, Cocklebur [6, 17]: 0
Plant response rating, Cocklebur [6, 16]: 10
Morningglory plant response rating [7, 15]: 40
Morningglory plant response rating [7, 16]: 90
Plant response rating, Morningglory [7, 17]: 0
Plant response rating, Morningglory [7, 16]: 0
Corn plant response rating (corn (Zea mays); [15]): 10
Corn plant response rating (corn (Zea mays); [16]): 70
Plant response rating, Corn (corn (Zea mays); [17]): 0
Plant response rating, Corn (corn (Zea mays); [16]): 0
Crabgrass plant response rating [8, 15]: 20
Crabgrass plant response rating [8, 16]: 40
Plant response rating, Crabgrass [8, 17]: 0
Plant response rating, Crabgrass [8, 16]: 0
Wheat plant response rating [9, 15]: 0
Wheat plant response rating [9, 16]: 20
Plant response rating, Wheat [9, 17]: 0
Plant response rating, Wheat [9, 16]: 0
Foxtail, Giant plant response rating [10, 15]: 30
Foxtail, Giant plant response rating [10, 16]: 50
Plant response rating, Foxtail, Giant [10, 17]: 0
Plant response rating, Foxtail, Giant [10, 16]: 0
Pigweed plant response rating [11, 15]: 90
Pigweed plant response rating [11, 16]: 90
Plant response rating, Pigweed [11, 17]: 10
Plant response rating, Pigweed [11, 16]: 50
Plant response rating, Rice (rice (Oryza sativa); 125 g ai/ha): 0
Plant response rating, Rice (rice (Oryza sativa); 500 g ai/ha): 0
Plant response rating, Ducksalad ([12]; 125 g ai/ha): 90
Plant response rating, Ducksalad ([12]; 500 g ai/ha): 100
Plant response rating, Barnyardgrass ([13]; 125 g ai/ha): 0
Plant response rating, Barnyardgrass ([13]; 500 g ai/ha): 30
Plant response rating, Sedge, Umbrella ([14]; 125 g ai/ha): 90
Plant response rating, Sedge, Umbrella ([14]; 500 g ai/ha): 100

COC(=O)c1nc(-c2ccc(Br)cc2)nc(N)c1Br [Compound 129]
Blackgrass plant response rating ([1]; 62 g ai/ha): 70
Blackgrass plant response rating ([1]; 125 g ai/ha): 70
Oat, Wild plant response rating (wild oat (Avena fatua); 62 g ai/ha): 0
Oat, Wild plant response rating (wild oat (Avena fatua); 125 g ai/ha): 40
Lambsquarters plant response rating [2, 15]: 100
Lambsquarters plant response rating [2, 16]: 100
Plant response rating, Lambsquarters [2, 16]: 80
Velvetleaf plant response rating [3, 15]: 80
Velvetleaf plant response rating [3, 16]: 90
Plant response rating, Velvetleaf [3, 17]: 50
Plant response rating, Velvetleaf [3, 16]: 60
Surinam Grass plant response rating [4, 15]: 50
Surinam Grass plant response rating [4, 16]: 70
Plant response rating, Surinam Grass [4, 17]: 0
Plant response rating, Surinam Grass [4, 16]: 10
Barnyardgrass plant response rating [5, 15]: 60
Barnyardgrass plant response rating [5, 16]: 70
Plant response rating, Barnyardgrass [5, 17]: 10
Plant response rating, Barnyardgrass [5, 16]: 30
Cocklebur plant response rating [6, 15]: 70
Cocklebur plant response rating [6, 16]: 100
Plant response rating, Cocklebur [6, 17]: 10
Plant response rating, Cocklebur [6, 16]: 30
Morningglory plant response rating [7, 15]: 50
Morningglory plant response rating [7, 16]: 100
Plant response rating, Morningglory [7, 17]: 0
Plant response rating, Morningglory [7, 16]: 0
Corn plant response rating (corn (Zea mays); [15]): 70
Corn plant response rating (corn (Zea mays); [16]): 80
Plant response rating, Corn (corn (Zea mays); [16]): 0
Crabgrass plant response rating [8, 15]: 50
Crabgrass plant response rating [8, 16]: 70
Plant response rating, Crabgrass [8, 17]: 10
Plant response rating, Crabgrass [8, 16]: 30
Wheat plant response rating [9, 15]: 0
Wheat plant response rating [9, 16]: 20
Plant response rating, Wheat [9, 17]: 0
Plant response rating, Wheat [9, 16]: 20
Foxtail, Giant plant response rating [10, 15]: 40
Foxtail, Giant plant response rating [10, 16]: 50
Plant response rating, Foxtail, Giant [10, 17]: 0
Plant response rating, Foxtail, Giant [10, 16]: 0
Pigweed plant response rating [11, 15]: 100
Pigweed plant response rating [11, 16]: 100
Plant response rating, Pigweed [11, 17]: 80
Plant response rating, Pigweed [11, 16]: 90
Plant response rating, Rice (rice (Oryza sativa); 125 g ai/ha): 0
Plant response rating, Rice (rice (Oryza sativa); 500 g ai/ha): 0
Plant response rating, Ducksalad ([12]; 125 g ai/ha): 100
Plant response rating, Ducksalad ([12]; 500 g ai/ha): 100
Plant response rating, Barnyardgrass ([13]; 125 g ai/ha): 0
Plant response rating, Barnyardgrass ([13]; 500 g ai/ha): 20
Plant response rating, Sedge, Umbrella ([14]; 125 g ai/ha): 90
Plant response rating, Sedge, Umbrella ([14]; 500 g ai/ha): 100
